Measured values reported in patent US8574563B2 (Bristol-Myers Squibb Company, priority 2006, dated 2013).
Like-named read-outs stand apart in the source and are kept apart here.

Tested on: HCV 1b-377-neo replicon cells
Experiment: HCV replicon assay, HCV 1b-377-neo replicon cells (1b FRET)
Format: cell-based, Hepatitis C virus genotype 1b
Settings: HCV 1b-377-neo replicon cells, HCV 1b genotype, read-out: EC50 range against HCV 1b (Table 2, Range)
Summary of the method: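 Compounds tested in HCV genotype 1b-377-neo replicon cells with a FRET read-out. Cells resistant to a reference NS5A inhibitor through a Y2065H NS5A mutation were run alongside wild-type cells.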

Row | SMILES | EC50 [nM] | EC50 (Hepatitis C virus) [nM]
1 | CN(C)[C@@H](C(=O)N1CCC[C@H]1c1ncc(-c2ccc(-c3ccc(-c4cnc([C@@H]5CCCN5C(=O)C5CCN(C(=O)OC(C)(C)C)CC5)[nH]4)cc3)cc2)[nH]1)c1ccccc1 [Example 94-34, ′tert-butyl 4-(((2S)-2-(5-(4′-(2-((2S)-1-((2R)-2-(dimethylamino)-2-phenylacetyl)-2-pyrrolidinyl)-1H-imidazol-5-yl)-4-biphenylyl)-1H-imidazol-2-yl)-1-pyrrolidinyl)carbonyl)-1-piperidinecarboxylate] | 1 to 99 | –
2 | CN(C)[C@@H](C(=O)N1CCC[C@H]1c1ncc(-c2ccc(-c3ccc(-c4cnc([C@@H]5CCCN5C(=O)C(c5ccccc5)c5ccccc5)[nH]4)cc3)cc2)[nH]1)c1ccccc1 [Example 94-36, (1R)-2-((2S)-2-(5-(4′-(2-((2S)-1-(diphenylacetyl)-2-pyrrolidinyl)-1H-imidazol-5-yl)-4-biphenylyl)-1H-imidazol-2-yl)-1-pyrrolidinyl)-N,N-dimethyl-2-oxo-1-phenylethanamine] | – | 0.001 to 0.999
3 | CC(=O)CCC(=O)N1CCC[C@H]1c1ncc(-c2ccc(-c3ccc(-c4cnc([C@@H]5CCCN5C(=O)[C@@H](c5ccccc5)N(C)C)[nH]4)cc3)cc2)[nH]1 [Example 94-37, 5-((2S)-2-(5-(4′-(2-((2S)-1-((2R)-2-(dimethylamino)-2-phenylacetyl)-2-pyrrolidinyl)-1H-imidazol-5-yl)-4-biphenylyl)-1H-imidazol-2-yl)-1-pyrrolidinyl)-5-oxo-2-pentanone] | – | 1 to 99
4 | CN(C)[C@@H](C(=O)N1CCC[C@H]1c1ncc(-c2ccc(-c3ccc(-c4cnc([C@@H]5CCCN5C(=O)c5ccccc5F)[nH]4)cc3)cc2)[nH]1)c1ccccc1 [Example 94-38, (1R)-2-((2S)-2-(5-(4′-(2-((2S)-1-(2-fluorobenzoyl)-2-pyrrolidinyl)-1H-imidazol-5-yl)-4-biphenylyl)-1H-imidazol-2-yl)-1-pyrrolidinyl)-N,N-dimethyl-2-oxo-1-phenylethanamine] | – | 0.001 to 0.999
5 | CN(C)[C@@H](C(=O)N1CCC[C@H]1c1ncc(-c2ccc(-c3ccc(-c4cnc([C@@H]5CCCN5C(=O)c5cscn5)[nH]4)cc3)cc2)[nH]1)c1ccccc1 [Example 94-42, (1R)-N,N-dimethyl-2-oxo-1-phenyl-2-((2S)-2-(5-(4′-(2-((2S)-1-(1,3-thiazol-4-ylcarbonyl)-2-pyrrolidinyl)-1H-imidazol-5-yl)-4-biphenylyl)-1H-imidazol-2-yl)-1-pyrrolidinyl)ethanamine] | – | 0.001 to 0.999
6 | CN(C)C(C(=O)N1CCC[C@H]1c1ncc(-c2ccc(-c3ccc(-c4cnc([C@@H]5CCCN5C(=O)[C@@H](c5ccccc5)N(C)C)[nH]4)cc3)cc2)[nH]1)c1ccc(Cl)nc1 (stereo partly drawn) [Example 94-44, 1-(6-chloro-3-pyridinyl)-2-((2S)-2-(5-(4′-(2-((2S)-1-((2R)-2-(dimethylamino)-2-phenylacetyl)-2-pyrrolidinyl)-1H-imidazol-5-yl)-4-biphenylyl)-1H-imidazol-2-yl)-1-pyrrolidinyl)-N,N-dimethyl-2-oxoethanamine] | – | 0.001 to 0.999
7 | CN(C)C(C(=O)N1CCC[C@H]1c1ncc(-c2ccc(-c3ccc(-c4cnc([C@@H]5CCCN5C(=O)[C@@H](c5ccccc5)N(C)C)[nH]4)cc3)cc2)[nH]1)c1cccnc1 (stereo partly drawn) [Example 94-45, 2-((2S)-2-(5-(4′-(2-((2S)-1-((2R)-2-(dimethylamino)-2-phenylacetyl)-2-pyrrolidinyl)-1H-imidazol-5-yl)-4-biphenylyl)-1H-imidazol-2-yl)-1-pyrrolidinyl)-N,N-dimethyl-2-oxo-1-(3-pyridinyl)ethanamine] | – | 0.001 to 0.999
8 | CN(C)C(C(=O)N1CCC[C@H]1c1ncc(-c2ccc(-c3ccc(-c4cnc([C@@H]5CCCN5C(=O)[C@@H](c5ccccc5)N(C)C)[nH]4)cc3)cc2)[nH]1)c1ccccn1 (stereo partly drawn) [Example 94-46, 2-((2S)-2-(5-(4′-(2-((2S)-1-((2R)-2-(dimethylamino)-2-phenylacetyl)-2-pyrrolidinyl)-1H-imidazol-5-yl)-4-biphenylyl)-1H-imidazol-2-yl)-1-pyrrolidinyl)-N,N-dimethyl-2-oxo-1-(2-pyridinyl)ethanamine] | – | 0.001 to 0.999
9 | CN(C)[C@@H](C(=O)N1CCC[C@H]1c1ncc(-c2ccc(-c3ccc(-c4cnc([C@@H]5CCCN5C(=O)Cc5cccs5)[nH]4)cc3)cc2)[nH]1)c1ccccc1 [Example 94-47, (1R)-N,N-dimethyl-2-oxo-1-phenyl-2-((2S)-2-(5-(4′-(2-((2S)-1-(2-thienylacetyl)-2-pyrrolidinyl)-1H-imidazol-5-yl)-4-biphenylyl)-1H-imidazol-2-yl)-1-pyrrolidinyl)ethanamine] | – | 0.001 to 0.999
10 | CN(C)[C@@H](C(=O)N1CCC[C@H]1c1ncc(-c2ccc(-c3ccc(-c4cnc([C@@H]5CCCN5C(=O)Cc5ccsc5)[nH]4)cc3)cc2)[nH]1)c1ccccc1 [Example 94-48, (1R)-N,N-dimethyl-2-oxo-1-phenyl-2-((2S)-2-(5-(4′-(2-((2S)-1-(3-thienylacetyl)-2-pyrrolidinyl)-1H-imidazol-5-yl)-4-biphenylyl)-1H-imidazol-2-yl)-1-pyrrolidinyl)ethanamine] | – | 0.001 to 0.999
11 | CN(C)[C@@H](C(=O)N1CCC[C@H]1c1ncc(-c2ccc(-c3ccc(-c4cnc([C@@H]5CCCN5C(=O)Cc5cccc6ccccc56)[nH]4)cc3)cc2)[nH]1)c1ccccc1 [Example 94-49, (1R)-N,N-dimethyl-2-((2S)-2-(5-(4′-(2-((2S)-1-(1-naphthylacetyl)-2-pyrrolidinyl)-1H-imidazol-5-yl)-4-biphenylyl)-1H-imidazol-2-yl)-1-pyrrolidinyl)-2-oxo-1-phenylethanamine] | – | 0.001 to 0.999
12 | CN(C)[C@@H](C(=O)N1CCC[C@H]1c1ncc(-c2ccc(-c3ccc(-c4cnc([C@@H]5CCCN5C(=O)Cc5cnc[nH]5)[nH]4)cc3)cc2)[nH]1)c1ccccc1 [Example 94-50, (1R)-2-((2S)-2-(5-(4′-(2-((2S)-1-(1H-imidazol-5-ylacetyl)-2-pyrrolidinyl)-1H-imidazol-5-yl)-4-biphenylyl)-1H-imidazol-2-yl)-1-pyrrolidinyl)-N,N-dimethyl-2-oxo-1-phenylethanamine] | – | 0.001 to 0.999
13 | CN(C)[C@@H](C(=O)N1CCC[C@H]1c1ncc(-c2ccc(-c3ccc(-c4cnc([C@@H]5CCCN5C(=O)Cc5ccccc5F)[nH]4)cc3)cc2)[nH]1)c1ccccc1 [Example 94-51, (1R)-2-((2S)-2-(5-(4′-(2-((2S)-1-((2-fluorophenyl)acetyl)-2-pyrrolidinyl)-1H-imidazol-5-yl)-4-biphenylyl)-1H-imidazol-2-yl)-1-pyrrolidinyl)-N,N-dimethyl-2-oxo-1-phenylethanamine] | – | 0.001 to 0.999
14 | CN(C)[C@@H](C(=O)N1CCC[C@H]1c1ncc(-c2ccc(-c3ccc(-c4cnc([C@@H]5CCCN5C(=O)Cc5cccc(F)c5)[nH]4)cc3)cc2)[nH]1)c1ccccc1 [Example 94-52, (1R)-2-((2S)-2-(5-(4′-(2-((2S)-1-((3-fluorophenyl)acetyl)-2-pyrrolidinyl)-1H-imidazol-5-yl)-4-biphenylyl)-1H-imidazol-2-yl)-1-pyrrolidinyl)-N,N-dimethyl-2-oxo-1-phenylethanamine] | – | 0.001 to 0.999
15 | CN(C)[C@@H](C(=O)N1CCC[C@H]1c1ncc(-c2ccc(-c3ccc(-c4cnc([C@@H]5CCCN5C(=O)Cc5ccc(F)cc5)[nH]4)cc3)cc2)[nH]1)c1ccccc1 [Example 94-53, (1R)-2-((2S)-2-(5-(4′-(2-((2S)-1-((4-fluorophenyl)acetyl)-2-pyrrolidinyl)-1H-imidazol-5-yl)-4-biphenylyl)-1H-imidazol-2-yl)-1-pyrrolidinyl)-N,N-dimethyl-2-oxo-1-phenylethanamine] | – | 0.001 to 0.999
